According to the kinase profiling compilation of Christmann-Franck et al. (2016):

Legend:
Assay in all cases: KINOMEscan competition binding
Conditions in all cases: compound 1.0 µM
CDK2 (human) = CDK2 (human) (UniProt P24941)
TLK1 (human) = TLK1 (human) (UniProt Q9UKI8)
HUNK (human) = HUNK (human) (UniProt P57058)
TNNI3K (human) = TNNI3K (human) (UniProt Q59H18)
[1] = test system: PIK3CA (human), P42336 [H1047Y]
[2] = test system: PIK3CA (human), P42336 [M1043I]
CAMK4 (human) = CAMK4 (human) (UniProt Q16566)
YES1 (human) = YES1 (human) (UniProt P07947)
[3] = test system: ABL1 (human), P00519 [Y253F]
CDK11B (human) = CDK11B (human) (UniProt P21127)
STK25 (human) = STK25 (human) (UniProt O00506)
ADCK4 (human) = ADCK4 (human) (UniProt Q96D53)
RIPK1 (human) = RIPK1 (human) (UniProt Q13546)
RPS6KA1 KD2 (human) = RPS6KA1 KD2 (human) (UniProt Q15418)
CSNK1A1L (human) = CSNK1A1L (human) (UniProt Q8N752)
RPS6KB1 (human) = RPS6KB1 (human) (UniProt P23443)
DAPK1 (human) = DAPK1 (human) (UniProt P53355)
SIK1 (human) = SIK1 (human) (UniProt P57059)
INSR (human) = INSR (human) (UniProt P06213)
[4] = test system: EGFR (human), P00533 [746-750 del]
PDPK1 (human) = PDPK1 (human) (UniProt O15530)
MAP4K2 (human) = MAP4K2 (human) (UniProt Q12851)
MAST1 (human) = MAST1 (human) (UniProt Q9Y2H9)
SGK110 (human) = SGK110 (human) (UniProt P0C264)
TXK (human) = TXK (human) (UniProt P42681)
CDK18 (human) = CDK18 (human) (UniProt Q07002)
MAPKAPK5 (human) = MAPKAPK5 (human) (UniProt Q8IW41)
IKBKB (human) = IKBKB (human) (UniProt O14920)
RIOK1 (human) = RIOK1 (human) (UniProt Q9BRS2)
PKMYT1 (human) = PKMYT1 (human) (UniProt Q99640)
RPS6KA4 KD1 (human) = RPS6KA4 KD1 (human) (UniProt O75676)
CSNK1D (human) = CSNK1D (human) (UniProt P48730)
MYO3B (human) = MYO3B (human) (UniProt Q8WXR4)
IRAK1 (human) = IRAK1 (human) (UniProt P51617)
PLK4 (human) = PLK4 (human) (UniProt O00444)
CHEK1 (human) = CHEK1 (human) (UniProt O14757)
CDC42BPA (human) = CDC42BPA (human) (UniProt Q5VT25)
MAP3K2 (human) = MAP3K2 (human) (UniProt Q9Y2U5)
MAPK9 (human) = MAPK9 (human) (UniProt P45984)
MINK1 (human) = MINK1 (human) (UniProt Q8N4C8)
NEK2 (human) = NEK2 (human) (UniProt P51955)
MAP3K10 (human) = MAP3K10 (human) (UniProt Q02779)
Chain of MAP3K10 (human) (Q02779 whole entry, looked up): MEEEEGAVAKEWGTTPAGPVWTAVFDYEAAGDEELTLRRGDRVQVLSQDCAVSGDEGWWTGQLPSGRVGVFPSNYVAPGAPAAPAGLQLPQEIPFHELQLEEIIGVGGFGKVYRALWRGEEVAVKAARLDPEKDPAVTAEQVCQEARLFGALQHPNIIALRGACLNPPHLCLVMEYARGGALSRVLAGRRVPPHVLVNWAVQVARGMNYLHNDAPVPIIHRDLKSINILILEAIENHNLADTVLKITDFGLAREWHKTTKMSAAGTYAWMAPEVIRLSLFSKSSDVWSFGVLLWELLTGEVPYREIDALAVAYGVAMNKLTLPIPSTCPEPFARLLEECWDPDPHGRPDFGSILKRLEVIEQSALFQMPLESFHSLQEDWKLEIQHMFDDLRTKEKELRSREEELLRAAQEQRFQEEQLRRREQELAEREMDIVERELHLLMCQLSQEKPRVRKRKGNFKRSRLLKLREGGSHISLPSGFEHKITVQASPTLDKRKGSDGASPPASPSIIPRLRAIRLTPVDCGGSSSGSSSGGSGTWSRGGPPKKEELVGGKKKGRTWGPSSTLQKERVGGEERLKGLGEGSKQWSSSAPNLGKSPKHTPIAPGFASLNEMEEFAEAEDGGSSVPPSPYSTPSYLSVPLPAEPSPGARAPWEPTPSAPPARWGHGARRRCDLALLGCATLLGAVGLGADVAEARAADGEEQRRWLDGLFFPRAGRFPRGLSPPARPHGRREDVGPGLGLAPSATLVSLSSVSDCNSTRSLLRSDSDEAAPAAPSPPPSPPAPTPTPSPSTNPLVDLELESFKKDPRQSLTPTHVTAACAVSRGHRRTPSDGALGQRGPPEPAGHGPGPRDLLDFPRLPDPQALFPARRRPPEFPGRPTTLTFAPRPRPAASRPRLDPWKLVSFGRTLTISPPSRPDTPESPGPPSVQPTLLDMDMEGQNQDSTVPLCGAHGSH

Chain of RPS6KB1 (human) (P23443 whole entry, looked up): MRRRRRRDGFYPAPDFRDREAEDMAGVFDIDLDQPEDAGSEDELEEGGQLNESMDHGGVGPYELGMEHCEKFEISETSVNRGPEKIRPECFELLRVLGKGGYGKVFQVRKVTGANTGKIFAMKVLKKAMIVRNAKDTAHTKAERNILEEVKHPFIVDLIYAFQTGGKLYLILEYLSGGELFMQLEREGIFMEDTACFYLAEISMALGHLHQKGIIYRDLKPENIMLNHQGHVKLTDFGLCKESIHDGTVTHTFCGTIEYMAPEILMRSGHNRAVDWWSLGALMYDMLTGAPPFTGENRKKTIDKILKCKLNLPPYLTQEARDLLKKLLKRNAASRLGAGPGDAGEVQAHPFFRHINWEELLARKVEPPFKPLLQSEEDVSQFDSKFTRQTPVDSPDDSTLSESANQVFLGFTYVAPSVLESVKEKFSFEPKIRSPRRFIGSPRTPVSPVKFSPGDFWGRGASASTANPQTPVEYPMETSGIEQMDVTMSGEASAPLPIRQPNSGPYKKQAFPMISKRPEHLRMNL
Chain of MAPK9 (human) (P45984 whole entry, looked up): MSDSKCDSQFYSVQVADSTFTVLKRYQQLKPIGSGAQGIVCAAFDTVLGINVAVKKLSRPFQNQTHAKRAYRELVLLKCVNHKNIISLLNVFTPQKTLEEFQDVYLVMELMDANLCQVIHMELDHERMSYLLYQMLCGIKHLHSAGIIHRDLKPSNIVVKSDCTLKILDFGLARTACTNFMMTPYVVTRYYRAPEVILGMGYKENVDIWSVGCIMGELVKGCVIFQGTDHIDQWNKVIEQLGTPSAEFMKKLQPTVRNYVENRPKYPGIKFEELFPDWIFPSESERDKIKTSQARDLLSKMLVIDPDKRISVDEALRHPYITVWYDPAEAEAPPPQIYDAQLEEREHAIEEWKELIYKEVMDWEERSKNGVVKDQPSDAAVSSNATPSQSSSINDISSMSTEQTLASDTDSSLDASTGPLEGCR
Chain of PLK4 (human) (O00444 whole entry, looked up): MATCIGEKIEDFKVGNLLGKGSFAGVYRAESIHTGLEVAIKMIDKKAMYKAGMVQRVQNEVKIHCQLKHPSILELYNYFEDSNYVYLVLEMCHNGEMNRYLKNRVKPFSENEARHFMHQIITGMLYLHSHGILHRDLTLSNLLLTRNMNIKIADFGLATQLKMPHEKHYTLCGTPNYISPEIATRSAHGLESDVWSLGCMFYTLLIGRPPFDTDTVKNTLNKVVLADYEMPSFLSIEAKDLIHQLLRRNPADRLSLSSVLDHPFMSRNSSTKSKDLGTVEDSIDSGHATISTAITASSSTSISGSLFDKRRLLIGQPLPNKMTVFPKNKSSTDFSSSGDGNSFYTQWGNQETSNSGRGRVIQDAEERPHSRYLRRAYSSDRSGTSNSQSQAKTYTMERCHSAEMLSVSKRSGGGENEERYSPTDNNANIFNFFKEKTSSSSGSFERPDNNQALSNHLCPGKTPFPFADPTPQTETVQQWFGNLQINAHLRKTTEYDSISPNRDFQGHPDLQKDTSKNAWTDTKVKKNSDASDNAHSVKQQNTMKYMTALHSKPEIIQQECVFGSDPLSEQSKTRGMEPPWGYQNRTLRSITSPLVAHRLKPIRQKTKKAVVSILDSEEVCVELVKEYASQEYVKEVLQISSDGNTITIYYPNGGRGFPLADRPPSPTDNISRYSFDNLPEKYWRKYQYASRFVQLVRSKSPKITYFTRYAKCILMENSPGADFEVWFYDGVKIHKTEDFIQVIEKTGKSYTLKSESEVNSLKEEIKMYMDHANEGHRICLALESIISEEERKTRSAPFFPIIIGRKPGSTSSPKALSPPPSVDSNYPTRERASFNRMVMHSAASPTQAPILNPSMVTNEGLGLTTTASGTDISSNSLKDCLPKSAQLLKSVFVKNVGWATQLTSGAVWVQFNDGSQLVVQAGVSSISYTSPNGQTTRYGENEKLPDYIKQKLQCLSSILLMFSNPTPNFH
Chain of MYO3B (human) (Q8WXR4 whole entry, looked up): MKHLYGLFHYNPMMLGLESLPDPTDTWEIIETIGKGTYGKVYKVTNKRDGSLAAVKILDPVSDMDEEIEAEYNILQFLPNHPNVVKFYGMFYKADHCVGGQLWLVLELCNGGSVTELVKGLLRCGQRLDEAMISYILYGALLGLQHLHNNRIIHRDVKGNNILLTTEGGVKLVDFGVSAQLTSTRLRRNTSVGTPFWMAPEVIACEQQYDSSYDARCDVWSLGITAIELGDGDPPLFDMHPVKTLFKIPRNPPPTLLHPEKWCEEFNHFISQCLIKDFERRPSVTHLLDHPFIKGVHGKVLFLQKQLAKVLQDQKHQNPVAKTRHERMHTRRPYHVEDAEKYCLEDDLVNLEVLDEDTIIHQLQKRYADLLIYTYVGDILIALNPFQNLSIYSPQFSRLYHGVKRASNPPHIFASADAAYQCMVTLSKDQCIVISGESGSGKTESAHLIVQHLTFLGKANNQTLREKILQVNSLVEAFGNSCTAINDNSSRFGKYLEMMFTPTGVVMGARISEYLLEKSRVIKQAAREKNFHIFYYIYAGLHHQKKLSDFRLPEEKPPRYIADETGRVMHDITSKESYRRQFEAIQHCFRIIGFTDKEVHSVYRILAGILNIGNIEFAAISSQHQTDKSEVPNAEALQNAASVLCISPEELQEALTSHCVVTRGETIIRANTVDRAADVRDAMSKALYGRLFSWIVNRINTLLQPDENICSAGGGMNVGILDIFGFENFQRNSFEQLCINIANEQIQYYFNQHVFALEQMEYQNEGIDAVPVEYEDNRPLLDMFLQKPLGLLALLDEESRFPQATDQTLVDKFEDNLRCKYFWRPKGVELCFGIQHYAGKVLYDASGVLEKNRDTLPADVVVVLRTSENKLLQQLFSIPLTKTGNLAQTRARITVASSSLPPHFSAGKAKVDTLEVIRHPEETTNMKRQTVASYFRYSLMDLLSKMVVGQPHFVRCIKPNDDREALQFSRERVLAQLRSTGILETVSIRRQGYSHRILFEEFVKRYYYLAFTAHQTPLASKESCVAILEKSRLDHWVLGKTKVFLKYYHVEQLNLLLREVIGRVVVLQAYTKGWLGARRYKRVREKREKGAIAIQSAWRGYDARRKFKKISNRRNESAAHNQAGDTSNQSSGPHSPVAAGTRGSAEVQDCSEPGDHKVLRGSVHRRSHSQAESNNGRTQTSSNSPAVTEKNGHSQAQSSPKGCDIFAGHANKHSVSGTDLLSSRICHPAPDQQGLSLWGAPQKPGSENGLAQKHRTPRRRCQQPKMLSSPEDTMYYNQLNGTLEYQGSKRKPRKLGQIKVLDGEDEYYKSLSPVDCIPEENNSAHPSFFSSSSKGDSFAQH
Chain of RIPK1 (human) (Q13546 whole entry, looked up): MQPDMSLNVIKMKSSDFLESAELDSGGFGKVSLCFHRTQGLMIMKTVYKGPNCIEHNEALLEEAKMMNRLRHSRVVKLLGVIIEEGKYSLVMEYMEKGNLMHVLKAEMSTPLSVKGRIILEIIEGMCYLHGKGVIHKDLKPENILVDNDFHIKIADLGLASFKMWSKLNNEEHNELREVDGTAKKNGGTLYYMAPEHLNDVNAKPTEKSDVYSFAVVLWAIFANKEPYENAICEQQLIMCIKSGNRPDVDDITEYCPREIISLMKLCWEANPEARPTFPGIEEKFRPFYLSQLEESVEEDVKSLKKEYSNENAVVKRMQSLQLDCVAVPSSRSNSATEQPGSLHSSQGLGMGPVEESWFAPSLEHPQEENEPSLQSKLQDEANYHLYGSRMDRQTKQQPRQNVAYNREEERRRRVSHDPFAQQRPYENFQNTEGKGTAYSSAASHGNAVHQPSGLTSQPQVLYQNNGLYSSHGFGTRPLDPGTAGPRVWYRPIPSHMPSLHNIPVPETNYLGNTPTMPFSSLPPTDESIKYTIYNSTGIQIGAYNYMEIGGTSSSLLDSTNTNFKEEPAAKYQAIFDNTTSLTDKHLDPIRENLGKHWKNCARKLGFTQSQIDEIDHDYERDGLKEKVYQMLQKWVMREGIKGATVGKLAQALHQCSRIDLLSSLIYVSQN

## Cc1cc(NC(=O)c2cccc(NC(=O)/C=C/CN(C)C)c2)ccc1Nc1nccc(-c2cccnc2)n1
CDK2 (human)
  kinase still bound, per cent of control: 77%
TLK1 (human)
  kinase still bound, per cent of control: 98%
HUNK (human)
  kinase still bound, per cent of control: 53%
TNNI3K (human)
  kinase still bound, per cent of control: 100%
[1]
  kinase still bound, per cent of control: 96%
[2]
  kinase still bound, per cent of control: 94%
CAMK4 (human)
  kinase still bound, per cent of control: 100%
YES1 (human)
  kinase still bound, per cent of control: 86%
[3]
  kinase still bound, per cent of control: 71%
CDK11B (human)
  kinase still bound, per cent of control: 100%
STK25 (human)
  kinase still bound, per cent of control: 92%
ADCK4 (human)
  kinase still bound, per cent of control: 93%
RIPK1 (human)
  kinase still bound, per cent of control: 51%
RPS6KA1 KD2 (human)
  kinase still bound, per cent of control: 88%
CSNK1A1L (human)
  kinase still bound, per cent of control: 71%
RPS6KB1 (human)
  kinase still bound, per cent of control: 100%
DAPK1 (human)
  kinase still bound, per cent of control: 100%
SIK1 (human)
  kinase still bound, per cent of control: 100%
INSR (human)
  kinase still bound, per cent of control: 14%
[4]
  kinase still bound, per cent of control: 90%
PDPK1 (human)
  kinase still bound, per cent of control: 61%
MAP4K2 (human)
  kinase still bound, per cent of control: 67%
MAST1 (human)
  kinase still bound, per cent of control: 97%
SGK110 (human)
  kinase still bound, per cent of control: 95%
TXK (human)
  kinase still bound, per cent of control: 96%
CDK18 (human)
  kinase still bound, per cent of control: 100%
MAPKAPK5 (human)
  kinase still bound, per cent of control: 74%
IKBKB (human)
  kinase still bound, per cent of control: 99%
RIOK1 (human)
  kinase still bound, per cent of control: 100%
PKMYT1 (human)
  kinase still bound, per cent of control: 69%
RPS6KA4 KD1 (human)
  kinase still bound, per cent of control: 79%
CSNK1D (human)
  kinase still bound, per cent of control: 18%
MYO3B (human)
  kinase still bound, per cent of control: 89%
IRAK1 (human)
  kinase still bound, per cent of control: 13%
PLK4 (human)
  kinase still bound, per cent of control: 58%
CHEK1 (human)
  kinase still bound, per cent of control: 98%
CDC42BPA (human)
  kinase still bound, per cent of control: 100%
MAP3K2 (human)
  kinase still bound, per cent of control: 100%
MAPK9 (human)
  kinase still bound, per cent of control: 0%
MINK1 (human)
  kinase still bound, per cent of control: 71%
NEK2 (human)
  kinase still bound, per cent of control: 100%
MAP3K10 (human)
  kinase still bound, per cent of control: 87%

## CN(C)C/C=C/C(=O)Nc1cccc(C(=O)Nc2ccc(Nc3nccc(/C(C#N)=C4\Nc5ccccc5S4)n3)cc2)c1
CDK2 (human)
  kinase still bound, per cent of control: 100%
TLK1 (human)
  kinase still bound, per cent of control: 100%
HUNK (human)
  kinase still bound, per cent of control: 99%
TNNI3K (human)
  kinase still bound, per cent of control: 100%
[1]
  kinase still bound, per cent of control: 100%
[2]
  kinase still bound, per cent of control: 100%
CAMK4 (human)
  kinase still bound, per cent of control: 100%
YES1 (human)
  kinase still bound, per cent of control: 100%
[3]
  kinase still bound, per cent of control: 100%
CDK11B (human)
  kinase still bound, per cent of control: 70%
STK25 (human)
  kinase still bound, per cent of control: 100%
ADCK4 (human)
  kinase still bound, per cent of control: 48%
RIPK1 (human)
  kinase still bound, per cent of control: 85%
RPS6KA1 KD2 (human)
  kinase still bound, per cent of control: 100%
CSNK1A1L (human)
  kinase still bound, per cent of control: 100%
RPS6KB1 (human)
  kinase still bound, per cent of control: 100%
DAPK1 (human)
  kinase still bound, per cent of control: 100%
SIK1 (human)
  kinase still bound, per cent of control: 100%
INSR (human)
  kinase still bound, per cent of control: 100%
[4]
  kinase still bound, per cent of control: 72%
PDPK1 (human)
  kinase still bound, per cent of control: 100%
MAP4K2 (human)
  kinase still bound, per cent of control: 100%
MAST1 (human)
  kinase still bound, per cent of control: 100%
SGK110 (human)
  kinase still bound, per cent of control: 100%
TXK (human)
  kinase still bound, per cent of control: 100%
CDK18 (human)
  kinase still bound, per cent of control: 100%
MAPKAPK5 (human)
  kinase still bound, per cent of control: 100%
IKBKB (human)
  kinase still bound, per cent of control: 87%
RIOK1 (human)
  kinase still bound, per cent of control: 14%
PKMYT1 (human)
  kinase still bound, per cent of control: 100%
RPS6KA4 KD1 (human)
  kinase still bound, per cent of control: 89%
CSNK1D (human)
  kinase still bound, per cent of control: 26%
MYO3B (human)
  kinase still bound, per cent of control: 100%
IRAK1 (human)
  kinase still bound, per cent of control: 1.2%
PLK4 (human)
  kinase still bound, per cent of control: 97%
CHEK1 (human)
  kinase still bound, per cent of control: 100%
CDC42BPA (human)
  kinase still bound, per cent of control: 98%
MAP3K2 (human)
  kinase still bound, per cent of control: 100%
MAPK9 (human)
  kinase still bound, per cent of control: 0.05%
MINK1 (human)
  kinase still bound, per cent of control: 100%
NEK2 (human)
  kinase still bound, per cent of control: 99%
MAP3K10 (human)
  kinase still bound, per cent of control: 68%
